Results: ChEMBL document CHEMBL3045780, “EGFR tyrosine kinase targeted compounds: synthesis, docking study, and in vitro antitumor activity of some new quinazoline and benzo[d]isothiazole derivatives” (Med Chem Res, 2011)
Values after ≈ are worked out from the molar mass of the structure shown.

Test system: MCF7
Test: Cytotoxicity against Homo sapiens (human) MCF7 cells after 48 hr by SRB assay
Format: functional, cell-based
Settings: MCF7, 48 h

Row | Compound | IC50 [µg/mL]
1 | c1cc(Nc2ncnc3ccccc23)cc(Nc2ncnc3ccccc23)c1 | 2.04 (≈ 5.6 µM)
2 | O=S1(=O)N=C(Nc2nnc(-c3ccccc3)s2)c2ccccc21 | 2.92 (≈ 8.53 µM)
3 | N=C(N)NS(=O)(=O)c1ccc(NC2=NS(=O)(=O)c3ccccc32)cc1 | 4.3 (≈ 11.3 µM)
4 | Clc1ccc(-c2nnc(Nc3ncnc4ccccc34)s2)cc1 | 2.04 (≈ 6 µM)
5 | O=S1(=O)N=C(NCCNC2=NS(=O)(=O)c3ccccc32)c2ccccc21 | 3.69 (≈ 9.45 µM)
6 | c1ccc2c(Nc3ccc(Nc4ncnc5ccccc45)cc3)ncnc2c1 | 0.06 (≈ 0.165 µM)
7 | NS(=O)(=O)c1ccc(NNC2=NS(=O)(=O)c3ccccc32)cc1 | 3.73 (≈ 10.6 µM)
8 | O=C(NS(=O)(=O)c1ccc(Cl)cc1)N1C(=O)c2ccccc2S1(=O)=O | 6.03 (≈ 15 µM)
9 | O=C(NS(=O)(=O)c1ccc(Cl)cc1)n1cnc2ccccc2c1=O | 3.74 (≈ 10.3 µM)
10 | NS(=O)(=O)c1ccc(NC2=NS(=O)(=O)c3ccccc32)cc1 | 4.17 (≈ 12.4 µM)
11 | O=S1(=O)N=C(Nc2ccc(NC3=NS(=O)(=O)c4ccccc43)cc2)c2ccccc21 | 2.76 (≈ 6.29 µM)
12 | c1ccc2c(NCCNc3ncnc4ccccc34)ncnc2c1 | 2.04 (≈ 6.45 µM)
13 | O=S1(=O)N=C(Nc2cccc(NC3=NS(=O)(=O)c4ccccc43)c2)c2ccccc21 | 3.14 (≈ 7.16 µM)
14 | N=C(N)NS(=O)(=O)c1ccc(Nc2ncnc3ccccc23)cc1 | 1.85 (≈ 5.4 µM)
15 | NS(=O)(=O)c1ccc(Nc2ncnc3ccccc23)cc1 | 2.4 (≈ 7.99 µM)
16 | Cc1ccc(S(=O)(=O)NC(=O)N2C(=O)c3ccccc3S2(=O)=O)cc1 | 5.65 (≈ 14.9 µM)
17 | Cc1ccc(S(=O)(=O)NC(=O)n2cnc3ccccc3c2=O)cc1 | 3.96 (≈ 11.5 µM)
18 | N=C(N)NS(=O)(=O)c1ccc(NNC2=NS(=O)(=O)c3ccccc32)cc1 | 4.35 (≈ 11 µM)
19 | N=C(N)NS(=O)(=O)c1ccc(NNc2ncnc3ccccc23)cc1 | 1.65 (≈ 4.62 µM)
20 | NS(=O)(=O)c1ccc(NNc2ncnc3ccccc23)cc1 | 1.13 (≈ 3.58 µM)
21 | O=S1(=O)N=C(Nc2nnc(-c3ccc(Cl)cc3)s2)c2ccccc21 | 2.92 (≈ 7.75 µM)
22 | c1ccc(-c2nnc(Nc3ncnc4ccccc34)s2)cc1 | 3.61 (≈ 11.8 µM)
